Assay results from US7473681B2, “Kahalalide F” (Pharma Mar, S.A., priority 2000, dated 2009).
Read-outs that look alike come from different tables or passages of the source.

What was measured:
[1] = Solubility of KF and recovery after reconstitution and dilution; format: physicochemical; details: 5/5/90% v/v/v CEW, diluted with 0.9% NaCl down to 0.5 μg/mL
Description: Methods. Solubility and stability of KF were studied as a function of polysorbate 80 (P80; 0.1-0.5% w/v) and citric acid monohydrate (CA; 5-15 mM) concentrations using an experimental design approach. Stabilities of KF lyophilized products containing crystalline (mannitol) or amorphous (sucrose) bulking agents were studied at +5° C. and +30° C. in the dark. Lyophilized products were characterized by infrared (IR) spectroscopy and differential scanning calorimetry. Recovery studies after reconstitution of KP lyophilized product and further dilution in infusion fluid were carried out to select an optimal reconstitution vehicle. Results. […] A combination of 0.1% w/v P80 and 5 mM CA was selected for further investigation. […] The glass transition temperature of the sucrose-based product was determined to be +46° C. The amorphous state of the product was confirmed by IR analysis. […] A stable lyophilized formulation is presented containing 100 μg of kahalalide F, 100 mg sucrose, 2.1 mg CA and 2 mg P80 to be reconstituted with a vehicle composed of 5/5/90% v/v/v CEW, and to be further dilute using normal saline.

[2] = CellTiter96 (MTS) in vitro cytotoxicity assay; details: H9 c2 (2-1) cardiac cells
[3] = test system: skeletal muscle (L8) cells; experiment: CellTiter96 (MTS) in vitro cytotoxicity assay; format: cell-based
[4] = CellTiter96 (MTS) in vitro cytotoxicity assay; format: cell-based; details: mouse, AML-12 liver cells; read-out: LD50 (the source's name)
[5] = CellTiter96 (MTS) in vitro cytotoxicity assay; format: cell-based; details: rat, NRX-52E kidney cells; read-out: LD50 (the source's name)
[6] = CellTiter96 (MTS) in vitro cytotoxicity assay; format: cell-based; details: mouse, FDC-P1 myelogenous stem cells; FDC-Pl myelogenous stem cells; read-out: LD50 (the source's name)
[7] = test system: astrocytes (glial fibrilary acidic protein positive); experiment: Fluorescent viability stain with immunocytochemistry; format: cell-based; details: ~10 μM
Description: (§1) We have also found this drug to be neuxotoxic at high concentrations in our assay system and which correlates well with animal data showing neurotoxicity above the maximum tolerated dose (MTD). Using a fluorescent viability stain (ethidium homodimer and calccin AM, Molecular Probes) coupled with immunocytochemistry, we determined that ˜10 μM Kahalalide is toxic to central nervous system (CNS) neurons (neurofilament positive) but spares astrocytes (glial fibrilary acidic protein positive) as well as sensory (substance P expressing) and motor (choline acetyl transferase positive) neurons in the spinal cord. We conclude that Kahalalide F is a promising drug for the treatment of prostate cancer as its neurotoxicity is relatively mild at or below MTD levels.

[8] = test system: central nervous system (CNS) neurons (neurofilament positive); experiment: as above; format: cell-based; details: ethidium homodimer and calcein AM stain
Description: as §1

[9] = test system: motor (choline acetyl transferase positive) neurons in the spinal cord; experiment: as above; format: cell-based; details: ~10 μM
Description: as §1

[10] = test system: sensory (substance P expressing) neurons in the spinal cord; experiment: as above; format: cell-based; details: ~10 μM
Description: as §1

[11] = Rodent maximum tolerated dose; format: in vivo
[12] = test system: PC-3; experiment: In vitro antiproliferative study; format: cell-based; details: PC-3 prostate tumor
[13] = test system: DU-145; experiment: In vitro antiproliferative study; format: cell-based; details: DU-145 prostate tumor
[14] = test system: T-10; experiment: In vitro antiproliferative study; format: cell-based; details: T-10 prostate tumor
[15] = test system: DHM; experiment: In vitro antiproliferative study; format: cell-based; details: DHM prostate tumor
[16] = test system: RB; experiment: In vitro antiproliferative study; format: cell-based; details: RB prostate tumor
[17] = test system: SK-BR-3; experiment: In vitro antiproliferative study; format: cell-based; details: SK-BR-3 neu+ breast tumor cells
[18] = test system: BT-474; experiment: In vitro antiproliferative study; format: cell-based; details: BT-474 neu+ breast tumor cells
[19] = test system: BE(2)C; experiment: In vitro antiproliferative study; format: cell-based; details: BE(2)C neuroblastoma cell line
[20] = In vitro exposure studies; format: cell-based; details: exposure of 1 hour as potent as 48 hours, in most cases
[21] = test system: fresh human tumor specimens; experiment: Human Tumor Cloning Assay; format: cell-based; details: 14-day continuous exposure, 31 evaluable specimens
Description: In the present study, fresh human tumor specimens were treated with KF to determine activity, utilizing the Human Tumor Cloning Assay. One hundred and four patient tumor specimens were treated with KF under 14-day continuous exposure at 0.01, 0.1, and 1.0 μM. Specimens were incubated in a 2-layer soft-agar cloning system at 37° C. and were removed on Day 14 for colony count. Colonies formed in the treated plates were compared to the number of colonies formed in the untreated control plates, and the percent colonies surviving at each concentration was calculated. The positive control plates contained the cell poison orthosodium vanadate (200 μg/ml). Among these specimens, approximately 30% were evaluable with appropriate negative and positive controls.

[22] = Phase I study: plasma pharmacokinetics; format: in vivo, human
Description: Bioanalysis of KF was performed by LC-MS/MS.

[23] = test system: patients with advanced or metastatic androgen refractory prostate cancer; experiment: Phase I study: toxicity and anti-tumor activity; format: in vivo, human
[24] = test system: hepatocellular carcinoma cells; experiment: Cytotoxicity to carcinoma cells; format: cell-based
[25] = test system: prostate carcinoma cells; experiment: Cytotoxicity to carcinoma cells; format: cell-based
[26] = glass infusion containers, refrigerated (+2-8° C., in the dark)
Description: Prior to in i.v. administration it is reconstituted with a solution composed of Cremophor EL, ethanol absolute and Water for Injection (CEW, 5/5/90% v/w) with further dilution in 0.9% w/v sodium chloride for infusion.

[27] = test system: dedifferentiated and mesenchymal chodrosarcomas, CHSAs
[28] = test system: osteosarcomas, OSAs

C/C=C1\NC(=O)[C@H](Cc2ccccc2)NC(=O)[C@@H](C(C)C)NC(=O)[C@@H](C(C)CC)NC(=O)[C@H](NC(=O)C(NC(=O)[C@H](CCCN)NC(=O)[C@H]2CCCN2C(=O)[C@H](NC(=O)[C@@H](NC(=O)[C@@H](NC(=O)[C@H](NC(=O)CCCC(C)C)C(C)C)C(C)O)C(C)C)C(C)C)C(C)CC)C(C)OC(=O)[C@H](C(C)C)NC1=O (single isomer, unassigned) [Kahalalide F, kahalalide F]
KF in solution after reconstitution and further dilution [1]: kept KF in solution | LD50 [2]: 5 mM | LD50 [3]: 0.6 mM | CC50 [4]: 170 nM | CC50 [5]: 1600 nM | CC50 [6]: 14 µM | toxicity to astrocytes [7]: spares | concentration toxic to CNS neurons [8]: ~10 µM | toxicity to motor neurons [9]: spares | toxicity to sensory neurons [10]: spares | MTD [11]: 300 μg/kg BW | IC50 [12]: 270 nM | IC50 [13]: 250 nM | IC50 [14]: 730 nM | IC50 [15]: 240 nM | IC50 [16]: 190 nM | IC50 [17]: 2500 nM | IC50 [18]: 2000 nM | IC50 [19]: 1000 nM | schedule dependence of cytotoxicity [20]: not schedule-dependent | specimens with in vitro response (50% survival) ([21]; 0.01 μg/M): 16% | specimens with in vitro response (50% survival) ([21]; 0.1 μg/M): 19% | specimens with in vitro response (50% survival) ([21]; 1.0 μg/M): 81% | maximum plasma concentrations ([22]; 320 μg/m2/day): 35 to 50 ng/mL | relationship between dose and AUC ([22]; i.v. infusion over one hour, 20-320 μg/m2/day, patients): linear relationship | drug related toxicity ([23]; 320 μg/m2/day, rapidly reversible): CTC grade 3 ASAT | tolerability of schedule ([23]; one hour infusion, five consecutive days every three weeks): well tolerated | maximum tolerated dose ([23]; up to 320 μg/m2/day, study ongoing): has not been reached yet | cytotoxicity [24]: cytotoxic | cytotoxicity [25]: cytotoxic | stability of infusion solutions [26]: at least 5 days | cytotoxicity ([27]; CHSAs): cytotoxic | exposure time eliciting a cytotoxic effect ([27]; cells not specified further in the sentence): 10 min | cytotoxicity [28]: cytotoxic
